# Data: patent US12059422B2 (MEI Pharma, Inc., priority 2011, dated 2024)
# Columns and labels:
# Assay type in all cases: biochemical
# [1] = target: T1, PI3K beta (Homo sapiens, UniProt P42338); experiment: Luciferase-based luminescence assay (ADP Glo), PI3K beta enzymatic activity; conditions: for IC50: inhibition of enzymatic activity, ADP Glo, 25 μM ATP, read-out: IC50 p110β; for α/β ratio: ratio of enzymatic IC50 values, Table 1
# T1 construct: purchased Millipore, Billerica, MA, USA
# How it was run: (§1)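 Final enzyme 4.8 nM PI3K beta or 7.6 nM PI3K gamma, with 50 μM PIP2 and 25 μM ATP, 1 h in HEPES pH 7.5 buffer with MgCl2, EGTA, NaCl, CHAPS and DTT. ADP formed measured by ADP-Glo luminescence; IC50 from 10-point curve fits.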
# [2] = target: T2, PI3K gamma (Homo sapiens, UniProt P48736); experiment: Luciferase-based luminescence assay (ADP Glo), PI3K gamma enzymatic activity; conditions: inhibition of enzymatic activity, 25 μM ATP, read-out: IC50 p110γ
# T2 construct: purchased Invitrogen Corp., Carlsbad, CA, USA
# T2 sequence (P48736 whole entry, species assumed): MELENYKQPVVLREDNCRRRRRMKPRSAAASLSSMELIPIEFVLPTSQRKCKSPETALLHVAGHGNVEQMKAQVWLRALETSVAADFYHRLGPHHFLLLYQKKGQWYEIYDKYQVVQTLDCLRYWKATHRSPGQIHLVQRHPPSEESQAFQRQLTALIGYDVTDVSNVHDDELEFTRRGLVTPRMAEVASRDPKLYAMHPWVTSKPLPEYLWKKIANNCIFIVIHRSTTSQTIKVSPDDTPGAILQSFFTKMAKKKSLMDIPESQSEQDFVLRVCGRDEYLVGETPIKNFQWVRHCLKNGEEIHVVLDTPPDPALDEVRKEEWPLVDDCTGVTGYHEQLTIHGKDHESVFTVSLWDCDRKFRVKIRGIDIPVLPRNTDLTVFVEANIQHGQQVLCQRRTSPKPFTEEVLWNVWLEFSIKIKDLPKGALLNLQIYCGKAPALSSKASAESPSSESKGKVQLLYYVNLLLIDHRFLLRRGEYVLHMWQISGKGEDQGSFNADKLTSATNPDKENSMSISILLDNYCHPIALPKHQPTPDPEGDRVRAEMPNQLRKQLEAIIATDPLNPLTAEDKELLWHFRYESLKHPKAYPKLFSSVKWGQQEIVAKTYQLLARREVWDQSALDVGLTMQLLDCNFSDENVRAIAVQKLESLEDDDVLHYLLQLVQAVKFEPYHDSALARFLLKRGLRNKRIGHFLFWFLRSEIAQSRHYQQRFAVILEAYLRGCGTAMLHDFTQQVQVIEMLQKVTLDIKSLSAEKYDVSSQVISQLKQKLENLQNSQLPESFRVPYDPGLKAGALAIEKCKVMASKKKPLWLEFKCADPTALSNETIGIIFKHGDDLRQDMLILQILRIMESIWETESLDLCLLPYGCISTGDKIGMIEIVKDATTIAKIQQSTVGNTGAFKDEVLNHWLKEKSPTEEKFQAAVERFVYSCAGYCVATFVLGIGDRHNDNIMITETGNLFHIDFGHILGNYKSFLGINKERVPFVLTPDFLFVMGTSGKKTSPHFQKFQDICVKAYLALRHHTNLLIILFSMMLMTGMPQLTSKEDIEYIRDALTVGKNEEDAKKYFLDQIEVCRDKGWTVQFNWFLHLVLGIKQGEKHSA
# How it was run: as §1
# [3] = target: T3, PI3K delta (Homo sapiens, UniProt O00329); experiment: Luciferase-based luminescence assay (KinaseGlo), PI3K delta enzymatic activity; conditions: for IC50: inhibition of enzymatic activity, KinaseGlo, 25 μM ATP, read-out: IC50 p110δ; for α/δ ratio: ratio of enzymatic IC50 against PI3Kα over IC50 against PI3Kδ; for β/δ ratio / γ/δ ratio: ratio of enzymatic IC50 values, Table 1
# T3 construct: purchased Millipore, Billerica, MA, USA
# T3 sequence (O00329 whole entry, species assumed): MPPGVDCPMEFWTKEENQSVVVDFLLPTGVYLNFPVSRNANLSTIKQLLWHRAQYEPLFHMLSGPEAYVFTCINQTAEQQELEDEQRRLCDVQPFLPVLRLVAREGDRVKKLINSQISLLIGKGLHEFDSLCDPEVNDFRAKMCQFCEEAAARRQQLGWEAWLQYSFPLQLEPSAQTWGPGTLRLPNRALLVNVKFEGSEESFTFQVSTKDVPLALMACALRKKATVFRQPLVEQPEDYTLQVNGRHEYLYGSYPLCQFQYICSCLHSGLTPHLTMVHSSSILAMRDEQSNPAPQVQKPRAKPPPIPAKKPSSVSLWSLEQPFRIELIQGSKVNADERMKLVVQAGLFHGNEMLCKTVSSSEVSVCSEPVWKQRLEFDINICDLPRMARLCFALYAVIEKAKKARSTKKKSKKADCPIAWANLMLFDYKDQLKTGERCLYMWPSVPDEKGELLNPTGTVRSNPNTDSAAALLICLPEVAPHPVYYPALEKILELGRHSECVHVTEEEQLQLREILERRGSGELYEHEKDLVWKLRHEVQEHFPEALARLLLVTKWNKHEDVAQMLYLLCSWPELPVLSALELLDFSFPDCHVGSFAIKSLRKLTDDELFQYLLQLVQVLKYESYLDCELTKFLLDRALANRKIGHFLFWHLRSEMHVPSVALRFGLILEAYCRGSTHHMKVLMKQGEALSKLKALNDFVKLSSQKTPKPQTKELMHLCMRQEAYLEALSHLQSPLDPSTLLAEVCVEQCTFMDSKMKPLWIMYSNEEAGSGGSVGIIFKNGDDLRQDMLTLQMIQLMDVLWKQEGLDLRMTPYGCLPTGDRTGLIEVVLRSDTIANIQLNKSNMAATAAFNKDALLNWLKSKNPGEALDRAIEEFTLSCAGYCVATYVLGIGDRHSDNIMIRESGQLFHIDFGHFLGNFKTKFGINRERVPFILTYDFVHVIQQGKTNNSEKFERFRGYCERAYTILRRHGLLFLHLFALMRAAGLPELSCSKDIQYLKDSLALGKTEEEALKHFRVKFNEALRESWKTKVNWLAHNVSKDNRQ
# T3 sequence (P27986 whole entry partner, species assumed): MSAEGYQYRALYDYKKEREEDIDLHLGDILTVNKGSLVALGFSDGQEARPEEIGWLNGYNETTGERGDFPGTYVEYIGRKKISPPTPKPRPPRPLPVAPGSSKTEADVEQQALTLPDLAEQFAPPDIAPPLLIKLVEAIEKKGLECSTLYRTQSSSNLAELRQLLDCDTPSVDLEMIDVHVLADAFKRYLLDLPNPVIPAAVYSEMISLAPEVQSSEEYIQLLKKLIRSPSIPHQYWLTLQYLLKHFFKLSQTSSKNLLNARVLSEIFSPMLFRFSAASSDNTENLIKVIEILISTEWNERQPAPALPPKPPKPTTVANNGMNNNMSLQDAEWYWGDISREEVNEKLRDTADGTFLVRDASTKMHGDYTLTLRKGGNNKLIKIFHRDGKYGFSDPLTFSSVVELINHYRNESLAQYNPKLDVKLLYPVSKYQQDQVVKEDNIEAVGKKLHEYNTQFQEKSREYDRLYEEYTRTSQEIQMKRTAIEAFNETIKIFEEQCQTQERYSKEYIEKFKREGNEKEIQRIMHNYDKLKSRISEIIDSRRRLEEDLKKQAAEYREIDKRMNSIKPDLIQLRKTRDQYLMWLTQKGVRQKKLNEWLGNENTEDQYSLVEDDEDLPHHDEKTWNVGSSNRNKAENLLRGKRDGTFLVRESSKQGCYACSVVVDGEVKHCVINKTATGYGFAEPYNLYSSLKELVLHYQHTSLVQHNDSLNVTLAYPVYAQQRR
# How it was run: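 KinaseGlo luminescence measured ATP remaining after PIP2 (50 μM) phosphorylation with 25 μM ATP in HEPES pH 7.5 buffer with CHAPS and DTT. Final enzyme was 1.65 nM alpha (1 h reaction) or 6.86 nM delta (2 h reaction). IC50 was curve-fitted from 10 concentrations.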
# T1 sequence (P42338 whole entry, species assumed): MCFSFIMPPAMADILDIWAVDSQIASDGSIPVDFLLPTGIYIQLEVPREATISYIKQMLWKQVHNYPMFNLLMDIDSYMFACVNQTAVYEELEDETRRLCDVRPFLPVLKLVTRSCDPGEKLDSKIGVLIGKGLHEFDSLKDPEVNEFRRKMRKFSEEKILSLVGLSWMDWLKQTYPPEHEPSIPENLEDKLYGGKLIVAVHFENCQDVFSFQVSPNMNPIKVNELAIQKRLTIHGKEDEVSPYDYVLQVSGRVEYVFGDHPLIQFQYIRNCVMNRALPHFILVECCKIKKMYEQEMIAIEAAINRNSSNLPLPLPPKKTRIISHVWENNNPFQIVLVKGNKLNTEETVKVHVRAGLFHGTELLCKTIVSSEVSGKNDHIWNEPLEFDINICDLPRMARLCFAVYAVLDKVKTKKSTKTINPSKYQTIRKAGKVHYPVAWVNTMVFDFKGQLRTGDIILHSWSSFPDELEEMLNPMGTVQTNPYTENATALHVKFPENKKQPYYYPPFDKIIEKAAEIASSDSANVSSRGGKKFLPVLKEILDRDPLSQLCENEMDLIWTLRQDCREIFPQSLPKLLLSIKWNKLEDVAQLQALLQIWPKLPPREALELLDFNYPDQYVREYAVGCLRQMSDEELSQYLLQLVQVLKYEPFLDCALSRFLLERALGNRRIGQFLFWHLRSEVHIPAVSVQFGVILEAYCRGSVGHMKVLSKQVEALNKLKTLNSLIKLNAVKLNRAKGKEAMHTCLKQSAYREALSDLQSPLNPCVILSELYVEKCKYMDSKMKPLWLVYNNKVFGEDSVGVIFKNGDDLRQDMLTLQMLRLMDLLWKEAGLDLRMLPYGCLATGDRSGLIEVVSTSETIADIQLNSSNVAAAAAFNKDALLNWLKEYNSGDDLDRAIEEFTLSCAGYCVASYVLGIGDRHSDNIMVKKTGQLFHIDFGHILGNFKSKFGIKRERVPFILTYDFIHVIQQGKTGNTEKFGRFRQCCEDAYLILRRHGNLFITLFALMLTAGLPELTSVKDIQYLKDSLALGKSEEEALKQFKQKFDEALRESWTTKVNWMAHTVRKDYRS
# T1 sequence (P27986 whole entry partner, species assumed): as the sequence (P27986 whole entry partner, species assumed) above
Compound,IC50 [1],α/β ratio [1],IC50 [2],IC50 [3],α/δ ratio [3],β/δ ratio [3],γ/δ ratio [3]
"CC(=O)N1CCC(c2ccccc2CC(C)(C)Nc2nc(N3CCOCC3)nc(-n3c(C(F)F)nc4ccccc43)n2)CC1 [Compound A72, 4-(2-(difluoromethyl)-1H-benzo[d]imidazol-1-yl)-N-(2-methyl-1-(2-(1-acetylpiperidin-4-yl)phenyl)propan-2-yl)-6-morpholino-1,3,5-triazin-2-amine]",≤ 100 nM,A’,≤ 100 nM,≤ 100 nM,A’,D’,C’
"CC(C)(Cc1ccccc1C1CCN(S(C)(=O)=O)CC1)Nc1nc(N2CCOCC2)nc(-n2c(C(F)F)nc3ccccc32)n1 [Compound A73, 4-(2-(difluoromethyl)-1H-benzo[d]imidazol-1-yl)-N-(2-methyl-1-(2-(1-(methylsulfonyl)piperidin-4-yl)phenyl)propan-2-yl)-6-morpholino-1,3,5-triazin-2-amine]",≤ 100 nM,A’,100 to 200 nM,≤ 100 nM,A’,D’,B’
"CC(C)(Cc1ccccc1C1CCNC1)Nc1nc(N2CCOCC2)nc(-n2c(C(F)F)nc3ccccc32)n1 (stereo not shown) [Compound A74, 4-(2-(difluoromethyl)-1H-benzo[d]imidazol-1-yl)-N-(2-methyl-1-(2-(pyrrolidin-3-yl)phenyl)propan-2-yl)-6-morpholino-1,3,5-triazin-2-amine]",> 500 nM,D’,> 500 nM,≤ 100 nM,A’,A’,A’
"CN(C)CCCc1ccccc1CC(C)(C)Nc1nc(N2CCOCC2)nc(-n2c(C(F)F)nc3ccccc32)n1 [Compound A76, 4-(2-(difluoromethyl)-1H-benzo[d]imidazol-1-yl)-N-(1-(2-(3-(dimethylamino)propyl)phenyl)-2-methylpropan-2-yl)-6-morpholino-1,3,5-triazin-2-amine]",200 to 500 nM,C’,> 500 nM,≤ 100 nM,A’,A’,A’
